Test results from patent US20100298141A1, “SUBSTITUTED PYRIDINE N-OXIDE HERBICIDES” (E. I. DU PONT DE NEMOURS AND COMPANY, priority 2007, published 2010).

How the values were obtained:
[1] = test system: velvetleaf; assay: Test C pre-/postemergence test; assay type: in vivo, Abutilon theophrasti
Procedure, shortened: (§1)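 Test chemicals were formulated with surfactant in a non-phytotoxic solvent and sprayed both on freshly planted seeds (preemergence) and on 1- to 4-leaf plants of 2–18 cm (postemergence). Flooded-paddy pots received compound directly into 3 cm of standing water, maintained for the test.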

[2] = test system: woolly cupgrass; assay: Test C pre-/postemergence test; assay type: in vivo, Eriochloa villosa; conditions: for Plant response rating (0 to 100), Cupgrass, Woolly: 250 g ai/ha
Procedure, shortened: as §1

[3] = test system: morningglory; assay: Test A pre-/postemergence greenhouse test; assay type: in vivo, Ipomoea spp.; conditions: for Morningglory plant response rating: 0 to 100 scale; for Plant response rating, Morningglory: 0 to 100 scale where 0 is no effect and 100 is complete control
Procedure, shortened: (§2)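 Untreated controls served as the reference for visual injury ratings taken about ten days after spraying. The non-phytotoxic solvent/surfactant formulation was applied preemergence to seeded loam and sand and postemergence to plants two to ten cm high.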

[4] = test system: wheat; assay: Test A pre-/postemergence greenhouse test; assay type: in vivo, Triticum aestivum; conditions: for Wheat plant response rating: 0 to 100 scale; for Plant response rating, Wheat: 0 to 100 scale where 0 is no effect and 100 is complete control
Procedure, shortened: as §2

[5] = test system: Surinam grass; assay: Test C pre-/postemergence test; assay type: in vivo, Brachiaria decumbens
Procedure, shortened: as §1

[6] = test system: giant foxtail; assay: Test C pre-/postemergence test; assay type: in vivo, Setaria faberii; conditions: for Plant response rating (0 to 100), Foxtail, Giant: 250 g ai/ha
Procedure, shortened: as §1

[7] = test system: downy brome; assay: Test C pre-/postemergence test; assay type: in vivo, Bromus tectorum; conditions: for Plant response rating (0 to 100), Bromegrass, Downy: 250 g ai/ha
Procedure, shortened: as §1

[8] = test system: common (oilseed) sunflower; assay: Test C pre-/postemergence test; assay type: in vivo, Helianthus annuus
Procedure, shortened: as §1

[9] = test system: cocklebur; assay: Test C pre-/postemergence test; assay type: in vivo, Xanthium strumarium; conditions: for Plant response rating (0 to 100), Cocklebur: 250 g ai/ha
Procedure, shortened: as §1

[10] = test system: blackgrass; assay: Test C pre-/postemergence test; assay type: in vivo, Alopecurus myosuroides; conditions: for Plant response rating (0 to 100), Blackgrass: 250 g ai/ha
Procedure, shortened: as §1

[11] = test system: lambsquarters; assay: Test C pre-/postemergence test; assay type: in vivo, Chenopodium album
Procedure, shortened: as §1

[12] = test system: catchweed bedstraw; assay: Test C pre-/postemergence test; assay type: in vivo, Galium aparine; conditions: for Plant response rating (0 to 100), Galium: 250 g ai/ha
Procedure, shortened: as §1

[13] = test system: wild oat; assay: Test C pre-/postemergence test; assay type: in vivo, Avena fatua
Procedure, shortened: as §1

[14] = test system: redroot pigweed; assay: Test A pre-/postemergence greenhouse test; assay type: in vivo, Amaranthus retroflexus; conditions: for Pigweed plant response rating: 0 to 100 scale; for Plant response rating, Pigweed: 0 to 100 scale where 0 is no effect and 100 is complete control
Procedure, shortened: as §2

[15] = test system: kochia; assay: Test C pre-/postemergence test; assay type: in vivo, Kochia scoparia
Procedure, shortened: as §1

[16] = test system: eastern black nightshade; assay: Test C pre-/postemergence test; assay type: in vivo, Solanum ptycanthum
Procedure, shortened: as §1

[17] = test system: common ragweed; assay: Test C pre-/postemergence test; assay type: in vivo, Ambrosia elation
Procedure, shortened: as §1

[18] = test system: wheat; assay: Test C pre-/postemergence test; assay type: in vivo, Triticum aestivum
Procedure, shortened: as §1

[19] = test system: giant foxtail; assay: Test A pre-/postemergence greenhouse test; assay type: in vivo, Setaria faberi; conditions: for Foxtail, Giant plant response rating: 0 to 100 scale; for Plant response rating, Foxtail, Giant: 0 to 100 scale where 0 is no effect and 100 is complete control
Procedure, shortened: as §2

[20] = 62 g ai/ha, preemergence, scale 0 (no effect) to 100 (complete control)
[21] = preemergence, 125 g ai/ha, scale 0 (no effect) to 100 (complete control)
[22] = 31 g ai/ha, Preemergence, scale 0 to 100
[23] = Postemergence, 125 g ai/ha, 0 is no effect, 100 is complete control
[24] = Postemergence, 500 g ai/ha, 0 is no effect, 100 is complete control
[25] = Preemergence, 125 g ai/ha, 0 no effect, 100 complete control
[26] = 62 g ai/ha, Preemergence, scale 0 to 100
[27] = Preemergence, 31 g ai/ha, scale 0 to 100 (0 no effect, 100 complete control)

## CC(c1c(C(F)(F)F)nn(C)c1Cl)S(=O)(=O)c1cccc[n+]1[O-] (stereo not drawn) [Compound 10]
[1]; [20]
  Velvetleaf plant response rating: 0
[1]; Preemergence, 250 g ai/ha
  Plant response rating (0 to 100), Velvetleaf: 75
[1]; [21]
  Velvetleaf plant response rating: 5
[2]; [22]
  Cupgrass, Woolly plant response rating: 75
[2]; [20]
  Cupgrass, Woolly plant response rating: 75
[2]; Preemergence
  Plant response rating (0 to 100), Cupgrass, Woolly: 100
[2]; [21]
  Cupgrass, Woolly plant response rating: 100
[3]; [23]
  Morningglory plant response rating: 20
[3]; [24]
  Morningglory plant response rating: 90
[3]; [25]
  Morningglory plant response rating: 80
[3]; Preemergence, 500 g ai/ha
  Plant response rating, Morningglory: 90
[4]; [23]
  Wheat plant response rating: 50
[4]; [24]
  Wheat plant response rating: 70
[4]; [25]
  Wheat plant response rating: 60
[4]; Preemergence, 500 g ai/ha
  Plant response rating, Wheat: 80
[5]; [20]
  Surinam Grass plant response rating: 98
[5]; Preemergence, 250 g ai/ha
  Plant response rating (0 to 100), Surinam Grass: 100
[5]; [21]
  Surinam Grass plant response rating: 100
[6]; [22]
  Foxtail, Giant plant response rating: 85
[6]; [20]
  Foxtail, Giant plant response rating: 100
[6]; Preemergence
  Plant response rating (0 to 100), Foxtail, Giant: 100
[6]; [21]
  Foxtail, Giant plant response rating: 100
[7]; [22]
  Bromegrass, Downy plant response rating: 0
[7]; [20]
  Bromegrass, Downy plant response rating: 0
[7]; Preemergence
  Plant response rating (0 to 100), Bromegrass, Downy: 70
[7]; [21]
  Bromegrass, Downy plant response rating: 10
[8]; [20]
  Sunflower plant response rating: 0
[8]; Preemergence, 250 g ai/ha
  Plant response rating (0 to 100), Sunflower: 100
[8]; [21]
  Sunflower plant response rating: 85
[9]; [22]
  Cocklebur plant response rating: 0
[9]; [20]
  Cocklebur plant response rating: 0
[9]; Preemergence
  Plant response rating (0 to 100), Cocklebur: 0
[9]; [21]
  Cocklebur plant response rating: 0
[10]; [22]
  Blackgrass plant response rating: 0
[10]; [20]
  Blackgrass plant response rating: 70
[10]; Preemergence
  Plant response rating (0 to 100), Blackgrass: 100
[10]; [21]
  Blackgrass plant response rating: 98
[11]; [22]
  Lambsquarters plant response rating: 0
[11]; [20]
  Lambsquarters plant response rating: 98
[11]; Preemergence, 250 g ai/ha
  Plant response rating (0 to 100), Lambsquarters: 100
[11]; [21]
  Lambsquarters plant response rating: 100
[12]; [22]
  Galium plant response rating: 0
[12]; [20]
  Galium plant response rating: 50
[12]; Preemergence
  Plant response rating (0 to 100), Galium: 100
[12]; [21]
  Galium plant response rating: 100
[13]; [22]
  Oat, Wild plant response rating: 0
[13]; [20]
  Oat, Wild plant response rating: 0
[13]; Preemergence, 250 g ai/ha
  Plant response rating (0 to 100), Oat, Wild: 65
[13]; [21]
  Oat, Wild plant response rating: 60
[14]; [23]
  Pigweed plant response rating: 30
[14]; [24]
  Pigweed plant response rating: 60
[14]; [25]
  Pigweed plant response rating: 100
[14]; Preemergence, 500 g ai/ha
  Plant response rating, Pigweed: 100
[15]; [22]
  Kochia plant response rating: 0
[15]; [20]
  Kochia plant response rating: 40
[15]; Preemergence, 250 g ai/ha
  Plant response rating (0 to 100), Kochia: 100
[15]; [21]
  Kochia plant response rating: 80
[16]; [22]
  Nightshade plant response rating: 90
[16]; [20]
  Nightshade plant response rating: 98
[16]; Preemergence, 250 g ai/ha
  Plant response rating (0 to 100), Nightshade: 100
[16]; [21]
  Nightshade plant response rating: 100
[17]; [22]
  Ragweed plant response rating: 60
[17]; [20]
  Ragweed plant response rating: 80
[17]; Preemergence, 250 g ai/ha
  Plant response rating (0 to 100), Ragweed: 100
[17]; [21]
  Ragweed plant response rating: 100
[18]; [20]
  Wheat plant response rating: 35
[18]; Preemergence, 250 g ai/ha
  Plant response rating (0 to 100), Wheat: 80
[18]; [21]
  Wheat plant response rating: 60
[19]; [23]
  Foxtail, Giant plant response rating: 80
[19]; [24]
  Foxtail, Giant plant response rating: 90
[19]; [25]
  Foxtail, Giant plant response rating: 100
[19]; Preemergence, 500 g ai/ha
  Plant response rating, Foxtail, Giant: 100

## CC(c1c(C(F)(F)F)nn(C)c1OC(F)F)S(=O)(=O)c1cc(C(C)(C)C)cc[n+]1[O-] (racemic) [Compound 26]
[1]; [26]
  Velvetleaf plant response rating: 80
[1]; [27]
  Plant response rating, Velvetleaf: 30
[2]; [26]
  Cupgrass, Woolly plant response rating: 40
[2]; [27]
  Plant response rating, Cupgrass, Woolly: 40
[2]; Preemergence
  Plant response rating (0 to 100), Cupgrass, Woolly: 98
[3]; [23]
  Morningglory plant response rating: 20
[3]; [24]
  Morningglory plant response rating: 30
[3]; [25]
  Morningglory plant response rating: 30
[3]; Preemergence, 500 g ai/ha
  Plant response rating, Morningglory: 100
[4]; [23]
  Wheat plant response rating: 10
[4]; [24]
  Wheat plant response rating: 40
[4]; [25]
  Wheat plant response rating: 20
[4]; Preemergence, 500 g ai/ha
  Plant response rating, Wheat: 70
[5]; [26]
  Surinam Grass plant response rating: 40
[5]; [27]
  Plant response rating, Surinam Grass: 10
[6]; [26]
  Foxtail, Giant plant response rating: 70
[6]; [27]
  Plant response rating, Foxtail, Giant: 40
[6]; Preemergence
  Plant response rating (0 to 100), Foxtail, Giant: 75
[7]; [26]
  Bromegrass, Downy plant response rating: 45
[7]; [27]
  Plant response rating, Bromegrass, Downy: 0
[7]; Preemergence
  Plant response rating (0 to 100), Bromegrass, Downy: 60
[7]; [21]
  Bromegrass, Downy plant response rating: 45
[8]; [26]
  Sunflower plant response rating: 0
[8]; [27]
  Plant response rating, Sunflower: 0
[9]; [26]
  Cocklebur plant response rating: 0
[9]; [27]
  Plant response rating, Cocklebur: 0
[9]; Preemergence
  Plant response rating (0 to 100), Cocklebur: 50
[9]; [21]
  Cocklebur plant response rating: 0
[10]; [26]
  Blackgrass plant response rating: 100
[10]; [27]
  Plant response rating, Blackgrass: 80
[10]; Preemergence
  Plant response rating (0 to 100), Blackgrass: 100
[10]; [21]
  Blackgrass plant response rating: 100
[11]; [26]
  Lambsquarters plant response rating: 40
[11]; [27]
  Plant response rating, Lambsquarters: 0
[12]; [26]
  Galium plant response rating: 85
[12]; [27]
  Plant response rating, Galium: 50
[12]; Preemergence
  Plant response rating (0 to 100), Galium: 100
[13]; [26]
  Oat, Wild plant response rating: 60
[13]; [27]
  Plant response rating, Oat, Wild: 0
[14]; [23]
  Pigweed plant response rating: 40
[14]; [24]
  Pigweed plant response rating: 60
[14]; [25]
  Pigweed plant response rating: 90
[14]; Preemergence, 500 g ai/ha
  Plant response rating, Pigweed: 100
[15]; [26]
  Kochia plant response rating: 0
[16]; [26]
  Nightshade plant response rating: 100
[16]; [27]
  Plant response rating, Nightshade: 100
[17]; [26]
  Ragweed plant response rating: 20
[17]; [27]
  Plant response rating, Ragweed: 0
[18]; [26]
  Wheat plant response rating: 0
[18]; [27]
  Plant response rating, Wheat: 0
[19]; [23]
  Foxtail, Giant plant response rating: 0
[19]; [24]
  Foxtail, Giant plant response rating: 30
[19]; [25]
  Foxtail, Giant plant response rating: 90
[19]; Preemergence, 500 g ai/ha
  Plant response rating, Foxtail, Giant: 100
